The values that follow come from PubChem BioAssay (NCI).

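Assay format: 96-well plates, 48-hour exposure. TGI: concentration producing complete growth inhibition.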

The test system of one test is CCRF-CEM leukemia. The experiment in a line: NCI-60 cell line screen, 48 h.
For `COc1ccc2oc(=N)c(C(=O)NCc3ccccc3)cc2c1`, the TGI was over 100 µM.
`CC(=O)N1C(c2[nH]c3ccccc3c2-c2ccccc2)CCN1c1ccccc1` (centres undefined) registered a TGI of over 10 µM.
The compound `CC(=O)N1C(Nc2ccccn2)CCN1c1ccccc1` (centres undefined) returned a TGI of over 10 µM.
`CCNCCNc1c2ccccc2nc2ccccc12` had a TGI of 8.63 µM.
For `CCCC1(NC(=O)C(F)(F)F)CC(OC)OC2COC(c3ccccc3)OC21` (centres undefined), the TGI was over 100 µM.
Compound `COC(O)C(=O)c1c2c(cc3c1CC1(Cc4cc5c(cc4C1)CCC5)C3)CCC2` (centres undefined) showed a TGI of 20.5 µM.
Compound `CCOC(=O)N(Cc1cccs1)c1cc(OC)c(OC)c(OC)c1` registered a TGI of 69.3 µM.
Turning to `COc1ccc(/C=C2\C(=O)N(C3OC(COC(C)=O)C(OC(C)=O)C(OC(C)=O)C3OC(C)=O)c3ccccc3N=C2N)cc1` (centres undefined), the TGI was over 100 µM.
Regarding `O=S(=O)(O)c1ccc(O)c2ncc(Cl)cc12`, the TGI is over 100 µM.
Still for that read-out and setting: next, `N=c1oc2cc(O)ccc2cc1C(=O)NCc1ccccc1`: 45 µM; `COc1cc(/C=C/C(=O)c2ccc(NS(=O)(=O)c3cc([N+](=O)[O-])ccc3C)cc2)cc(OC)c1OC`: 7.48 µM.
As for `C=CCOc1ccc(/C(N=Nc2ccc([N+](=O)[O-])cc2)=N/NC(=O)c2ccccc2)cc1OC`, the TGI was over 100 µM.
Turning to `NC(=O)N/N=C1\CCCCc2ccccc21`, the TGI was over 10 µM.

Another test deals with HT29 colon. The test can be described thus: NCI-60 cell line screen, 48 h.
Take `COc1ccc2oc(=N)c(C(=O)NCc3ccccc3)cc2c1`: the TGI was over 100 µM.
Compound `CC(=O)N1C(c2[nH]c3ccccc3c2-c2ccccc2)CCN1c1ccccc1` (centres undefined) had a TGI of over 10 µM.
Still for that read-out and setting: next, `CC(=O)N1C(Nc2ccccn2)CCN1c1ccccc1` (centres undefined): over 10 µM; `CCNCCNc1c2ccccc2nc2ccccc12`: over 100 µM.
`CCOC(=O)c1c(N)sc2c1C(C(=O)OCC)CC2` (centres undefined) displayed a TGI of over 100 µM.
In the case of `CC(=O)OCC1OC(SC2=N/C(=C\c3cc4c(=O)c5ccccc5sc4s3)C(=O)N2c2ccccc2)C(OC(C)=O)C(OC(C)=O)C1OC(C)=O` (centres undefined), the TGI is over 100 µM.
In the case of `COC(O)C(=O)c1c2c(cc3c1CC1(Cc4cc5c(cc4C1)CCC5)C3)CCC2` (centres undefined), the TGI was 22.7 µM.
Same read-out and setting: to `CCOC(=O)N(Cc1cccs1)c1cc(OC)c(OC)c(OC)c1` belongs over 100 µM; to `COc1ccc(/C=C2\C(=O)N(C3OC(COC(C)=O)C(OC(C)=O)C(OC(C)=O)C3OC(C)=O)c3ccccc3N=C2N)cc1` (centres undefined), 38 µM.
`O=S(=O)(O)c1ccc(O)c2ncc(Cl)cc12` came in with a TGI of over 100 µM.
In turn, `N=c1oc2cc(O)ccc2cc1C(=O)NCc1ccccc1` gave a TGI of over 100 µM.
The same measure, in the same setting: next, `COc1cc(/C=C/C(=O)c2ccc(NS(=O)(=O)c3cc([N+](=O)[O-])ccc3C)cc2)cc(OC)c1OC`: 14.4 µM; `C=CCOc1ccc(/C(N=Nc2ccc([N+](=O)[O-])cc2)=N/NC(=O)c2ccccc2)cc1OC`: over 100 µM.
The compound `NC(=O)N/N=C1\CCCCc2ccccc21` returned a TGI of over 10 µM.
Regarding `CCOC(=O)c1ccc(N=C2C(=S)N(c3ccc(C(=O)OCC)cc3)C(=N)N2/N=C/c2ccccc2)cc1`, the TGI was over 100 µM.

The subject of the next test is SR leukemia. The test can be described thus: NCI-60 cell line screen, 48 h.
With `COc1ccc2oc(=N)c(C(=O)NCc3ccccc3)cc2c1`, the TGI is over 100 µM.
Take `CC(=O)N1C(c2[nH]c3ccccc3c2-c2ccccc2)CCN1c1ccccc1` (centres undefined): the TGI was over 10 µM.
In turn, `CC(=O)N1C(Nc2ccccn2)CCN1c1ccccc1` (centres undefined) gave a TGI of over 10 µM.
Same read-out and setting: next, `CCNCCNc1c2ccccc2nc2ccccc12`: 4.18 µM; `CCOC(=O)c1c(N)sc2c1C(C(=O)OCC)CC2` (centres undefined): over 100 µM.
The compound `CC(=O)OCC1OC(SC2=N/C(=C\c3cc4c(=O)c5ccccc5sc4s3)C(=O)N2c2ccccc2)C(OC(C)=O)C(OC(C)=O)C1OC(C)=O` (centres undefined) displayed a TGI of over 100 µM.
Consider `CCCC1(NC(=O)C(F)(F)F)CC(OC)OC2COC(c3ccccc3)OC21` (centres undefined), for which the TGI is over 100 µM.
`COC(O)C(=O)c1c2c(cc3c1CC1(Cc4cc5c(cc4C1)CCC5)C3)CCC2` (centres undefined) showed a TGI of 15.1 µM.
Still for that read-out and setting: to `CCOC(=O)N(Cc1cccs1)c1cc(OC)c(OC)c(OC)c1` belongs 65.5 µM; to `COc1ccc(/C=C2\C(=O)N(C3OC(COC(C)=O)C(OC(C)=O)C(OC(C)=O)C3OC(C)=O)c3ccccc3N=C2N)cc1` (centres undefined), 53.6 µM.
`O=S(=O)(O)c1ccc(O)c2ncc(Cl)cc12` displayed a TGI of over 100 µM.
Take `N=c1oc2cc(O)ccc2cc1C(=O)NCc1ccccc1`: the TGI came out at 67 µM.
Regarding `COc1cc(/C=C/C(=O)c2ccc(NS(=O)(=O)c3cc([N+](=O)[O-])ccc3C)cc2)cc(OC)c1OC`, the TGI is 5.74 µM.
As to `C=CCOc1ccc(/C(N=Nc2ccc([N+](=O)[O-])cc2)=N/NC(=O)c2ccccc2)cc1OC`, the TGI was over 100 µM.
Consider `NC(=O)N/N=C1\CCCCc2ccccc21`, for which the TGI was over 10 µM.
For the compound `CCOC(=O)c1ccc(N=C2C(=S)N(c3ccc(C(=O)OCC)cc3)C(=N)N2/N=C/c2ccccc2)cc1`, the TGI was over 100 µM.

The next test has as its system COLO 205 colon. The experiment in a line: NCI-60 cell line screen, 48 h.
In turn, `COc1ccc2oc(=N)c(C(=O)NCc3ccccc3)cc2c1` had a TGI of over 100 µM.
On to `CC(=O)N1C(c2[nH]c3ccccc3c2-c2ccccc2)CCN1c1ccccc1` (centres undefined), for which the TGI is over 10 µM.
`CC(=O)N1C(Nc2ccccn2)CCN1c1ccccc1` (centres undefined) had a TGI of over 10 µM.
In turn, `CCNCCNc1c2ccccc2nc2ccccc12` yielded a TGI of 3.42 µM.
With `CCOC(=O)c1c(N)sc2c1C(C(=O)OCC)CC2` (centres undefined), the TGI is over 100 µM.
On to `CC(=O)OCC1OC(SC2=N/C(=C\c3cc4c(=O)c5ccccc5sc4s3)C(=O)N2c2ccccc2)C(OC(C)=O)C(OC(C)=O)C1OC(C)=O` (centres undefined), for which the TGI is over 100 µM.
As for `CCCC1(NC(=O)C(F)(F)F)CC(OC)OC2COC(c3ccccc3)OC21` (centres undefined), the TGI is 48.6 µM.
For the compound `CCOC(=O)N(Cc1cccs1)c1cc(OC)c(OC)c(OC)c1`, the TGI is 32.9 µM.
The compound `COc1ccc(/C=C2\C(=O)N(C3OC(COC(C)=O)C(OC(C)=O)C(OC(C)=O)C3OC(C)=O)c3ccccc3N=C2N)cc1` (centres undefined) displayed a TGI of 34 µM.
`O=S(=O)(O)c1ccc(O)c2ncc(Cl)cc12` displayed a TGI of over 100 µM.
`N=c1oc2cc(O)ccc2cc1C(=O)NCc1ccccc1` gave a TGI of 25.4 µM.
The compound `COc1cc(/C=C/C(=O)c2ccc(NS(=O)(=O)c3cc([N+](=O)[O-])ccc3C)cc2)cc(OC)c1OC` displayed a TGI of 14.9 µM.
As to `C=CCOc1ccc(/C(N=Nc2ccc([N+](=O)[O-])cc2)=N/NC(=O)c2ccccc2)cc1OC`, the TGI was over 100 µM.
Compound `NC(=O)N/N=C1\CCCCc2ccccc21` registered a TGI of over 10 µM.
Regarding `CCOC(=O)c1ccc(N=C2C(=S)N(c3ccc(C(=O)OCC)cc3)C(=N)N2/N=C/c2ccccc2)cc1`, the TGI worked out at 25 µM.

The subject of the next test is HCC-2998 colon. The test can be described thus: NCI-60 cell line screen, 48 h.
In turn, `CC(=O)N1C(c2[nH]c3ccccc3c2-c2ccccc2)CCN1c1ccccc1` (centres undefined) returned a TGI of over 10 µM.
`CC(=O)N1C(Nc2ccccn2)CCN1c1ccccc1` (centres undefined) returned a TGI of over 10 µM.
For the compound `CCNCCNc1c2ccccc2nc2ccccc12`, the TGI amounted to 1.09 µM.
In the case of `CCOC(=O)c1c(N)sc2c1C(C(=O)OCC)CC2` (centres undefined), the TGI was over 100 µM.
For `CC(=O)OCC1OC(SC2=N/C(=C\c3cc4c(=O)c5ccccc5sc4s3)C(=O)N2c2ccccc2)C(OC(C)=O)C(OC(C)=O)C1OC(C)=O` (centres undefined), the TGI is over 100 µM.
The compound `CCCC1(NC(=O)C(F)(F)F)CC(OC)OC2COC(c3ccccc3)OC21` (centres undefined) returned a TGI of over 100 µM.
On the same count and under the same terms, to `COC(O)C(=O)c1c2c(cc3c1CC1(Cc4cc5c(cc4C1)CCC5)C3)CCC2` (centres undefined) belongs 42.8 µM.
`CCOC(=O)N(Cc1cccs1)c1cc(OC)c(OC)c(OC)c1` yielded a TGI of over 100 µM.
As to `COc1ccc(/C=C2\C(=O)N(C3OC(COC(C)=O)C(OC(C)=O)C(OC(C)=O)C3OC(C)=O)c3ccccc3N=C2N)cc1` (centres undefined), the TGI is 54.4 µM.
In the case of `O=S(=O)(O)c1ccc(O)c2ncc(Cl)cc12`, the TGI was over 100 µM.
